Laboratory results as given in US20170234881A1, “METHODS OF DIAGNOSING AND TREATING CANCER” (INSERM ( INSTITUT NATIONAL DE LA SANTÉ ET DE LA RECHERCHE …, priority 2014, published 2017).

Experiments:
E0771 cells = assay: Growth of E0771 tumors implanted s.c. into mice; format: in vivo; conditions: mouse E0771 tumors, OCDO 50 μg/kg s.c.
Description: FIG. 2. OCDO is a tumor promoter in vitro and in vivo and its inhibition contributes to the anti-tumor effects of Tam and DDA. (A, B) Histograms representing the effect of OCDO or 17β-estrogen (E2) on MCF7 (A) and TS/A (B) cell proliferation after 24 h treatment using a colorimetric immunoassay measuring BrDU incorporation in DNA (C, D) Histogram representing the effect of OCDO on MCF7 (C) and TS/A (D) cell invasion. Data are the mean of three separate experiments (±s.e.m), *P<0.05, **P<0.01, ***P<0.001 (Student's t-test). (E, F) Mice were implanted s.c. with MCF7 (E) or TS/A (F) cells and animals (8 per group) were treated s.c. every day starting on the day of implantation with either the solvent vehicle or OCDO (16 μg/kg for MCF7 or 50 μg/kg for TS/A). Animals were monitored for tumour growth twice a week. […] (G) Mean (±s.e.m) of Ki67 positive cell number determined from IHC staining of MCF7 tumor sections from (E), n=8, *P<0.05 (Student's t-test) using HistoQuant, Pannoramic Viewer (3DHistech). […]
Exponentially growing MCF7, ShMCF7, E0771, MDA-MB231, MDA-MB468 and TS/A cells were collected, washed twice in PBS and resuspended in PBS. […] Animals were examined daily, and body weights were measured twice per week. In all the experiments, the tumor volume was determined by direct measurement with a caliper and was calculated using the formula (width^2×length)/2. […]

TS/A tumors = assay: Growth of TS/A tumors implanted s.c. into mice; format: in vivo
Description: FIG. 2. OCDO is a tumor promoter in vitro and in vivo and its inhibition contributes to the anti-tumor effects of Tam and DDA. (A, B) Histograms representing the effect of OCDO or 17β-estrogen (E2) on MCF7 (A) and TS/A (B) cell proliferation after 24 h treatment using a colorimetric immunoassay measuring BrDU incorporation in DNA (C, D) Histogram representing the effect of OCDO on MCF7 (C) and TS/A (D) cell invasion. Data are the mean of three separate experiments (±s.e.m), *P<0.05, **P<0.01, ***P<0.001 (Student's t-test). (E, F) Mice were implanted s.c. with MCF7 (E) or TS/A (F) cells and animals (8 per group) were treated s.c. every day starting on the day of implantation with either the solvent vehicle or OCDO (16 μg/kg for MCF7 or 50 μg/kg for TS/A). Animals were monitored for tumour growth twice a week. The data are representative of three independent experiments. The mean tumor volume±s.e.m is shown, *P<0.05, **P<0.01, ***P<0.001 (analysis of variance (ANOVA), Dunnett's post test). (G) Mean (±s.e.m) of Ki67 positive cell number determined from IHC staining of MCF7 tumor sections from (E), n=8, *P<0.05 (Student's t-test) using HistoQuant, Pannoramic Viewer (3DHistech). (H) Representative Ki67 staining of TS/A tumor sections from (F) showing increased staining in OCDO-treated tumor compared with control-treated tumor. (I, J, K). Murine E0771(I), or human MDA-MB231 (J) or MDA-MB468 (K) cells implanted s.c. into mice (8 per group) and animals were treated s.c. with either the solvent vehicle or OCDO (16 μg/kg for MDA-MB-231 and MDA-MB-468 or 50 μg/kg for E0771). The data are representative of two independent experiments. Statistical analysis was performed as in E and F. (L) Mice were implanted s.c. with TS/A cells and animals (8 per group) were treated s.c. every day with either the solvent vehicle, OCDO (50 μg/kg), Tam (56 mg/kg), DDA (20 mg/kg) or the combination of Tam (56 mg/kg) +OCDO (50 μg/kg) or DDA (20 mg/kg)+OCDO (50 μg/kg). The data are representative of three independent experiments. Statistical analysis was performed as in E and F.
Exponentially growing MCF7, ShMCF7, E0771, MDA-MB231, MDA-MB468 and TS/A cells were collected, washed twice in PBS and resuspended in PBS. TS/A and E9771 tumours were prepared by subcutaneous transplantation of 35×10^3 cells or 3×10^5 cells respectively in 100 μl PBS into the flank of BALB/c or C57B16 mice. For other tumors, 5 to 10×10^6 cells in 200 μl PBS/matrigel (1/1) were injected into the flank of NMRI nude mice. Animals were treated as indicated in the legends. Animals were examined daily, and body weights were measured twice per week. In all the experiments, the tumor volume was determined by direct measurement with a caliper and was calculated using the formula (width^2×length)/2. Tumors were either frozen in liquid nitrogen or fixed in 10% neutral-buffered formalin and embedded in paraffin for immunohistochemical analysis. Paraffin sections were stained with haematoxylin and eosin for histomorphological analyses. Immunohistochemical staining was done on paraffin-embedded tissue sections, using a specific Ki67 antibody (Dako).
We then assayed the anti-growth effect of Tam or DDA against TS/A tumors in the absence and presence of OCDO. As above, TS/A tumors implanted into immunocompetent mice were treated s.c. every day either with either the solvent vehicle (control), OCDO (50 μg/kg), Tam (56 mg/kg), DDA (20 mg/kg) or the combination of Tam (56 mg/kg)+OCDO (50 μg/kg) or DDA (20 mg/kg) +OCDO (50 μg/kg).

CC(C)CCC[C@@H](C)[C@H]1CC[C@H]2[C@@H]3CC(=O)[C@@]4(O)C[C@@H](O)CC[C@]4(C)[C@H]3CC[C@]12C [OCDO, 6-oxo-cholestan-3β,5α-diol] was tested, and the tumor growth (E0771 cells) was “stimulates the growth”, the “tumor growth compared with the control group” value (TS/A tumors; TS/A tumors in immunocompetent mice, OCDO 50 μg/kg s.c. every day) was “significantly increased” and the “proliferative marker Ki67 in tumors compared with control-treated tumors” value (TS/A tumors; TS/A tumors, IHC) was “increased”. For the same molecule, the “enhancement of TS/A tumor growth compared with the control group” value (TS/A tumors; after 13 days of treatment, OCDO 50 μg/kg s.c. every day, p<0.01) was 140%.
